In US9931327B2, “Derivatives of 1-phenyl-2-pyridinyl alkyl alcohols as phosphodiesterase inhibitors” (Chiesi Farmaceutici S.p.A., priority 2011, dated 2018):
Like-named read-outs stand apart in the source and are kept apart here.

Test system: LPS-induced TNF-α release in peripheral blood mononuclear cells (PBMCs)
Assay: In vitro determination of PDE4 inhibitory activity in the PBMCs assay (LPS-induced TNF-α release)
Type: cell-based, human
Conditions: PBMC, human PBMCs, LPS 3 ng/ml, 18 hours, read-out: PDE4 inhibition (IC50, 50% inhibition of LPS-induced TNF-α release)
Outline: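 Cryopreserved human PBMCs (10^5 cells/well) pre-incubated 30 min with compound (10^−12 to 10^−6 M or 10^−3 to 10^−7 M), then stimulated with LPS 3 ng/ml for 18 h at 37 °C. TNF-α in medium by ELISA; IC50 as mean ± 95% confidence limits.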

SMILES | IC50 (TNF-α by ELISA) | IC50 (compounds of formula (II))
Cn1cnc(S(=O)(=O)N2CCS[C@H]2C(=O)O[C@@H](Cc2c(Cl)c[n+]([O-])cc2Cl)c2ccc(OC(F)F)c(OCC3CC3)c2)c1 [Compound 119, 3,5-dichloro-4-((S)-2-(3-(cyclopropylmethoxy)-4-(difluoromethoxy)phenyl)-2-((S)-3-(1-methyl-1H-imidazol-4-ylsulfonyl)thiazolidine-2-carbonyloxy)ethyl)pyridine 1-oxide] | < 0.1 nM | 
O=C(O[C@@H](Cc1c(Cl)c[n+]([O-])cc1Cl)c1ccc(OC(F)F)c(OCC2CC2)c1)[C@@H]1SCCN1S(=O)(=O)c1cccc(OC(F)(F)F)c1 [Compound 104, 3,5-dichloro-4-((S)-2-(3-(cyclopropylmethoxy)-4-(difluoromethoxy)phenyl)-2-((S)-3-(3-(trifluoromethoxy)phenylsulfonyl)thiazolidine-2-carbonyloxy)ethyl)pyridine 1-oxide] | 0.1 to 1 nM | 
Cc1nn(C)c2ncc(S(=O)(=O)N3CCSC3C(=O)O[C@@H](Cc3c(Cl)c[n+]([O-])cc3Cl)c3ccc(OC(F)F)c(OCC4CC4)c3)cc12 (stereo in doubt) [Compound 240, 3,5-dichloro-4-((S)-2-(3-(cyclopropylmethoxy)-4-(difluoromethoxy)phenyl)-2-((S)-3-(1,3-dimethyl-1H-pyrazolo[3,4-b]pyridin-5-ylsulfonyl)thiazolidine-2-carbonyloxy)ethyl)pyridine 1-oxide] | < 0.1 nM | 
CN(C)C(=O)c1cccc(S(=O)(=O)N2CCCC[C@H]2C(=O)O[C@@H](Cc2c(Cl)c[n+]([O-])cc2Cl)c2ccc(OC(F)F)c(OCC3CC3)c2)c1 [Compound 82, 3,5-dichloro-4-((S)-2-(3-(cyclopropylmethoxy)-4-(difluoromethoxy)phenyl)-2-((S)-1-(3-(dimethylcarbamoyl)phenylsulfonyl)piperidine-2-carbonyloxy)ethyl)pyridine 1-oxide] | < 0.1 nM | 
Cn1ccnc1S(=O)(=O)N1CCC[C@H]1C(=O)O[C@@H](Cc1c(Cl)c[n+]([O-])cc1Cl)c1ccc(OC(F)F)c(OCC2CC2)c1 [Compound 155, 3,5-dichloro-4-((S)-2-(3-(cyclopropylmethoxy)-4-(difluoromethoxy)phenyl)-2-((S)-1-(1-methyl-1H-imidazol-2-ylsulfonyl)pyrrolidine-2-carbonyloxy)ethyl)pyridine 1-oxide] | < 0.1 nM | 
O=C(CN1CCSC1C(=O)O[C@@H](Cc1c(Cl)c[n+]([O-])cc1Cl)c1ccc(OC(F)F)c(OCC2CC2)c1)c1cccs1 (stereo partly drawn) [Compound 144, 3,5-dichloro-4-((2S)-2-(3-(cyclopropylmethoxy)-4-(difluoromethoxy)phenyl)-2-(3-(2-oxo-2-(thiophen-2-yl)ethyl)thiazolidine-2-carbonyloxy)ethyl)pyridine 1-oxide] | 0.1 to 1 nM | 
O=C(O[C@@H](Cc1c(Cl)c[n+]([O-])cc1Cl)c1ccc(OC(F)F)c(OCC2CC2)c1)[C@@H]1SCCN1S(=O)(=O)c1cccnc1 [Compound 88, 3,5-dichloro-4-((S)-2-(3-(cyclopropylmethoxy)-4-(difluoromethoxy)phenyl)-2-((S)-3-(pyridin-3-ylsulfonyl)thiazolidine-2-carbonyloxy)ethyl)pyridine 1-oxide] | < 0.1 nM | 
CN1CCN(C(=O)c2cccc(S(=O)(=O)N3CCSC3C(=O)O[C@@H](Cc3c(Cl)c[n+]([O-])cc3Cl)c3ccc(OC(F)F)c(OCC4CC4)c3)c2)CC1 (stereo partly drawn) [Compound 130, 3,5-dichloro-4-((2S)-2-(3-(cyclopropylmethoxy)-4-(difluoromethoxy)phenyl)-2-(3-(3-(4-methylpiperazine-1-carbonyl)phenylsulfonyl)thiazolidine-2-carbonyloxy)ethyl)pyridine 1-oxide] | < 0.1 nM | 
O=C(O[C@@H](Cc1c(Cl)c[n+]([O-])cc1Cl)c1ccc(OC(F)F)c(OCC2CC2)c1)[C@@H]1SCCN1S(=O)(=O)c1cccc(CO)c1 [Compound 271, 3,5-dichloro-4-((S)-2-(3-(cyclopropylmethoxy)-4-(difluoromethoxy)phenyl)-2-((S)-3-(3-(hydroxymethyl)phenylsulfonyl)thiazolidine-2-carbonyloxy)ethyl)pyridine 1-oxide] | < 0.1 nM | 
Cc1noc2ncc(S(=O)(=O)N3CCC[C@H]3C(=O)O[C@@H](Cc3c(Cl)c[n+]([O-])cc3Cl)c3ccc(OC(F)F)c(OCC4CC4)c3)cc12 [Compound 251, 3,5-dichloro-4-((S)-2-(3-(cyclopropylmethoxy)-4-(difluoromethoxy)phenyl)-2-((S)-1-(3-methylisoxazolo[5,4-b]pyridin-5-ylsulfonyl)pyrrolidine-2-carbonyloxy)ethyl)pyridine 1-oxide] | < 0.1 nM | 
O=C(O[C@@H](Cc1c(Cl)c[n+]([O-])cc1Cl)c1ccc(OC(F)F)c(OCC2CC2)c1)C1SCCN1S(=O)(=O)c1ccccc1 (stereo partly drawn) [Compound 57, 3,5-dichloro-4-((2S)-2-(3-(cyclopropylmethoxy)-4-(difluoromethoxy)phenyl)-2-(3-(phenylsulfonyl)thiazolidine-2-carbonyloxy)ethyl)pyridine 1-oxide] | 0.1 to 1 nM | 
O=C(O[C@@H](Cc1c(Cl)c[n+]([O-])cc1Cl)c1ccc(OC(F)F)c(OCC2CC2)c1)C1SCCN1S(=O)(=O)c1cccc(F)c1 (stereo partly drawn) [Compound 60, 3,5-dichloro-4-((2S)-2-(3-(cyclopropylmethoxy)-4-(difluoromethoxy)phenyl)-2-(3-(3-fluorophenylsulfonyl)thiazolidine-2-carbonyloxy)ethyl)pyridine 1-oxide] | 0.1 to 1 nM | 
COc1ccc(C(=O)N2CCC[C@H]2C(=O)O[C@@H](Cc2c(Cl)c[n+]([O-])cc2Cl)c2ccc(OC(F)F)c(OCC3CC3)c2)cc1OS(C)(=O)=O [Compound 30, 3,5-dichloro-4-((S)-2-(3-(cyclopropylmethoxy)-4-(difluoromethoxy)phenyl)-2-((S)-1-(4-methoxy-3-(methylsulfonyloxy)benzoyl)pyrrolidine-2-carbonyloxy)ethyl)pyridine-1-oxide] | 1 to 10 nM | 
O=C(O[C@@H](Cc1c(Cl)c[n+]([O-])cc1Cl)c1ccc(OC(F)F)c(OCC2CC2)c1)[C@@H]1SCCN1S(=O)(=O)CCN1CCOCC1 [Compound 287, 3,5-dichloro-4-((S)-2-(3-(cyclopropylmethoxy)-4-(difluoromethoxy)phenyl)-2-((S)-3-(2-morpholinoethylsulfonyl)thiazolidine-2-carbonyloxy)ethyl)pyridine 1-oxide] | < 0.1 nM | 
O=C(O[C@@H](Cc1c(Cl)c[n+]([O-])cc1Cl)c1ccc(OC(F)F)c(OCC2CC2)c1)C1SCCN1S(=O)(=O)c1cccs1 (stereo partly drawn) [Compound 62, 3,5-dichloro-4-((2S)-2-(3-(cyclopropylmethoxy)-4-(difluoromethoxy)phenyl)-2-(3-(thiophen-2-ylsulfonyl)thiazolidine-2-carbonyloxy)ethyl)pyridine 1-oxide] | 0.1 to 1 nM | 
COC(=O)c1ccc(S(=O)(=O)N2CCS[C@H]2C(=O)O[C@@H](Cc2c(Cl)c[n+]([O-])cc2Cl)c2ccc(OC(F)F)c(OCC3CC3)c2)cc1 [Compound 100, 3,5-dichloro-4-((S)-2-(3-(cyclopropylmethoxy)-4-(difluoromethoxy)phenyl)-2-((S)-3-(4-(methoxycarbonyl)phenylsulfonyl)thiazolidine-2-carbonyloxy)ethyl)pyridine 1-oxide] | 1 to 10 nM | 
O=C(O[C@@H](Cc1c(Cl)c[n+]([O-])cc1Cl)c1ccc(OC(F)F)c(OCC2CC2)c1)C1SCCN1S(=O)(=O)CC1CC1 (stereo partly drawn) [Compound 65, 3,5-dichloro-4-((2S)-2-(3-(cyclopropylmethoxy)-4-(difluoromethoxy)phenyl)-2-(3-(cyclopropylmethylsulfonyl)thiazolidine-2-carbonyloxy)ethyl)pyridine 1-oxide] | 0.1 to 1 nM | 
CN(C)C(=O)c1cccc(S(=O)(=O)N2CCC[C@@H]2C(=O)O[C@@H](Cc2c(Cl)c[n+]([O-])cc2Cl)c2ccc(OC(F)F)c(OCC3CC3)c2)c1 [Compound 55, 3,5-dichloro-4-((S)-2-(3-(cyclopropylmethoxy)-4-(difluoromethoxy)phenyl)-2-((R)-1-(3-(dimethylcarbamoyl)phenylsulfonyl)pyrrolidine-2-carbonyloxy)ethyl)pyridine 1-oxide] | 0.1 to 1 nM | 
Nc1ccc(S(=O)(=O)N2CCN(CC(=O)O[C@@H](Cc3c(Cl)c[n+]([O-])cc3Cl)c3ccc(OC(F)F)c(OCC4CC4)c3)CC2)cc1 [Compound 141, (S)-4-(2-(2-(4-(4-aminophenylsulfonyl)piperazin-1-yl)acetoxy)-2-(3-(cyclopropylmethoxy)-4-(difluoromethoxy)phenyl)ethyl)-3,5-dichloropyridine 1-oxide] | 0.1 to 1 nM | 
CN(C)C(=O)c1cccc(C(=O)N2CCC[C@@H]2C(=O)O[C@@H](Cc2c(Cl)c[n+]([O-])cc2Cl)c2ccc(OC(F)F)c(OCC3CC3)c2)c1 [Compound 185, 3,5-dichloro-4-((S)-2-(3-(cyclopropylmethoxy)-4-(difluoromethoxy)phenyl)-2-((R)-1-(3-(dimethylcarbamoyl)benzoyl)pyrrolidine-2-carbonyloxy)ethyl)pyridine 1-oxide] | 0.1 to 1 nM | 
O=C(O[C@@H](Cc1c(Cl)c[n+]([O-])cc1Cl)c1ccc(OC(F)F)c(OCC2CC2)c1)C1CN(S(=O)(=O)c2ccccc2)CCO1 (stereo partly drawn) [Compound 79, 3,5-dichloro-4-((2S)-2-(3-(cyclopropylmethoxy)-4-(difluoromethoxy)phenyl)-2-(4-(phenylsulfonyl)morpholine-2-carbonyloxy)ethyl)pyridine 1-oxide] | 0.1 to 1 nM | 
O=C(O[C@@H](Cc1c(Cl)c[n+]([O-])cc1Cl)c1ccc(OC(F)F)c(OCC2CC2)c1)[C@@H]1CSCN1 [Compound 11] |  | 0.1 to 1 nM
COc1ccc(S(=O)(=O)N2CCC[C@H]2C(=O)O[C@@H](Cc2c(Cl)c[n+]([O-])cc2Cl)c2ccc(OC(F)F)c(OCC3CC3)c2)cc1C(=O)N(C)C [Compound 124, 3,5-dichloro-4-((S)-2-(3-(cyclopropylmethoxy)-4-(difluoromethoxy)phenyl)-2-((S)-1-(3-(dimethylcarbamoyl)-4-methoxyphenylsulfonyl)pyrrolidine-2-carbonyloxy)ethyl)pyridine 1-oxide] | < 0.1 nM | 
